The text below walks through data of paper PMC8421423, “Cellular model system to dissect the isoform-selectivity of Akt inhibitors” (Nature Communications, 2021).

Assay [1] concerns the target T1, Akt2 (Homo sapiens, UniProt P31751). In words: PhosphoSens continuous fluorometric kinetic enzyme assay.
Target sequence in this assay (P31751 whole entry): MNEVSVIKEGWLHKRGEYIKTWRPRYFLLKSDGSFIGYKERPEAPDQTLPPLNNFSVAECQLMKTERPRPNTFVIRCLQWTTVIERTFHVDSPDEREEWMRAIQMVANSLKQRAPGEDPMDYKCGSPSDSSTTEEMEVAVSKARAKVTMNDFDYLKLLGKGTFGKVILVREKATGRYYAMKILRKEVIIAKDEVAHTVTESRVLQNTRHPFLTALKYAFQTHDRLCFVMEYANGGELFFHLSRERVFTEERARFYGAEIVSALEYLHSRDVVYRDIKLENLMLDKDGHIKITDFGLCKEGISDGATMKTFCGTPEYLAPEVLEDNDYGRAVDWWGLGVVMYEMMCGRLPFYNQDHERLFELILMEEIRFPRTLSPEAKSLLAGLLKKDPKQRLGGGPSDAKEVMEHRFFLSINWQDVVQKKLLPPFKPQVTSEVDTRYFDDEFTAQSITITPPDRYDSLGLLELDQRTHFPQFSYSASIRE
Procedure: (§2) By addition of either 8 nM Akt1, 2 nM Akt2, or 5 nM Akt3 (final concentrations) the reactions were initiated. […] Afterwards the kobs-values were plotted versus the inhibitor concentrations [I] and then fit to the following hyperbolic Eq.
Assay [2] concerns the target T2, Akt3 (Homo sapiens, UniProt Q9Y243, E113A/E114A/E115A).
T2 construct: AKT3(2–443, E114/115/116A); His6 with TEV protease recognition site (N, cleaved yes); made in house; host or cells: Spodoptera frugiperda (Sf9)
In words: ESI-MS/MS of tryptic digest (modified cysteine residues). Type of assay: binding. Conditions: 5-fold molar excess of inhibitor. Here is the method:
(§1) ESI-MS/MS samples were prepared as stated above followed by steps of reduction, alkylation, and tryptic digest. The digested samples were stage tip-purified using C18 tips and according to a protocol described elsewhere. Subsequently, samples were thawed, dissolved in 20 μL of 0.1% TFA in water, sonicated at room temperature for 15 min, and centrifuged at 15,000×g for 1 min shortly before analysis. In all, 3 μL of sample were loaded onto a pre-column cartridge and desalted for 5 min using 0.1% TFA in water as eluent at a flow rate of 30 μL/min. The samples were back-flushed from the pre-column to the nano-HPLC column during the whole analysis. Elution was performed using a gradient starting at 5% B with a final composition of 30% B after 35 min (flow rate 300 nL/min) using 0.1% formic acid in water as eluent A and 0.1% formic acid in acetonitrile as eluent B and a column temperature of 40 °C. […] During the complete gradient cycle, a typical TOP10 shot-gun proteomics method for the MS and MS/MS analysis was used. For full scan MS experiments a mass range of m/z 300–1650 was scanned with a resolution of 70000. MS/MS experiments were followed by up to 10 high energy collision dissociation (HCD) MS/MS scans with a resolution of 17,500 of the most intense at least doubly charged ions. Data evaluation was performed using MaxQuant[50]. Spectra were searched against the specific Akt sequence and a contamination database using a false discovery rate of 1% on peptide and protein level using a decoy database for determination of the false discovery rate. For database search oxidation of methionine and N-terminal acetylation of proteins, carbamidomethylation of cysteines, and artificial modification of cysteines were defined as variable modifications.

Assay [3] deals with Akt3 (Homo sapiens, UniProt Q9Y243). Put plainly: PhosphoSens continuous fluorometric kinetic enzyme assay.
Akt3 (Homo sapiens, UniProt Q9Y243), sequence (Q9Y243 whole entry): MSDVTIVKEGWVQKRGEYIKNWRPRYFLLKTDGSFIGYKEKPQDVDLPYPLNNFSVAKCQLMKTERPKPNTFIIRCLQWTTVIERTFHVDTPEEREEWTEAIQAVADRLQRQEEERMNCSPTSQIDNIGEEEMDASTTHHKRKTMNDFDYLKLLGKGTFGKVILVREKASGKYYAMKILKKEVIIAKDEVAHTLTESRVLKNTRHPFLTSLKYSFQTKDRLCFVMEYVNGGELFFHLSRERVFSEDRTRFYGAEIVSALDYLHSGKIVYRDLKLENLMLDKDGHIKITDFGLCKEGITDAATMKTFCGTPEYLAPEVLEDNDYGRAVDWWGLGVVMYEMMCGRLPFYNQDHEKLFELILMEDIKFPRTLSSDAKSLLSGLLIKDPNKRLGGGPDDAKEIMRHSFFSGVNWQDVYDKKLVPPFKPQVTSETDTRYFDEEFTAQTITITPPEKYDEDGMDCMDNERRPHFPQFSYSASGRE
Procedure: as §2
Assay [4] deals with T1, Akt2. Put plainly: ESI-MS/MS of tryptic digest (modified cysteine residues). Conditions: 5-fold molar excess of inhibitor. In kind it is binding. The arrangement: AKT2(2–447); His6 with TEV protease recognition site (N, cleaved yes); made in house; host or cells: Spodoptera frugiperda (Sf9). Here is the method:
as §1, with “Spectra were searched against the specific Akt sequence and a contamination database using a false discovery rate of 1% on peptide and protein level using a decoy database for determination of the false discovery rate. For database search oxidation of methionine and N-terminal acetylation of proteins, carbamidomethylation of cysteines, and artificial modification of cysteines were defined as variable modifications.” left out
Target sequence in this assay (P31751 2-447): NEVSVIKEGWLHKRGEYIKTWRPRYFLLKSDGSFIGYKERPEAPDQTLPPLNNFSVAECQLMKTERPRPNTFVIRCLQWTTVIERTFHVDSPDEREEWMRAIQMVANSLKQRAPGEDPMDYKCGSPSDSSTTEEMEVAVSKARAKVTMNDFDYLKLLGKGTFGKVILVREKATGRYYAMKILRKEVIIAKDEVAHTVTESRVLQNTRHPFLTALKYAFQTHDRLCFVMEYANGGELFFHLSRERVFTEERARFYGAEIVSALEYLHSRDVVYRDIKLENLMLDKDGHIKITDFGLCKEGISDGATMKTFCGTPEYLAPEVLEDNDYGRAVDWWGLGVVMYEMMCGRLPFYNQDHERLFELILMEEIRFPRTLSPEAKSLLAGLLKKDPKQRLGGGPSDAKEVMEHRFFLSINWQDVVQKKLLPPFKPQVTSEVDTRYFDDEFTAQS

The test system of assay [5] is pAkt1. In words: Western blot analysis, PANC1 cells. Type of assay: cell-based, human. To be noted: PANC1, 24-h treatment. (In western blotting, separated proteins are transferred to a membrane and probed.)
The target of assay [6] is Akt1 (Homo sapiens, UniProt P31749). Put plainly: PhosphoSens continuous fluorometric kinetic enzyme assay.
Akt1, sequence (P31749 whole entry): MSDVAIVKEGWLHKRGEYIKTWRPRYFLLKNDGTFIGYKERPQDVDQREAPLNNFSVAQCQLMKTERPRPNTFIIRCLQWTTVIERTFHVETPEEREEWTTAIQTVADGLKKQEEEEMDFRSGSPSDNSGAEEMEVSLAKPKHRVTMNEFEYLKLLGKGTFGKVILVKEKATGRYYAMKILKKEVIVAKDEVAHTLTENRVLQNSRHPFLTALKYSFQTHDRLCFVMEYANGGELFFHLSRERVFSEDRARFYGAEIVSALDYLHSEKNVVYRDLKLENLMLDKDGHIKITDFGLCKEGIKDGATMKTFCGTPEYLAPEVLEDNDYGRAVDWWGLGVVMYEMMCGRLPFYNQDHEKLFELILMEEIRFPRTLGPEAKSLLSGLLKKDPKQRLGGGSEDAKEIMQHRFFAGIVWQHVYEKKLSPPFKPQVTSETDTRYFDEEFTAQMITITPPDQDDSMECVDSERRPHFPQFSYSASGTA
Procedure: as §2
Where [7] appears, read: Ki Akt2, Mean, mean of replicates.
Where [8] appears, read: Ki Akt2, individual determinations, single replicates.
[9] abbreviates: read-out: kinact Akt2, individual determinations, single replicates.
[10] abbreviates: Ki Akt3, Mean, mean of replicates.
Setting [11] is: Ki Akt3, individual determinations, single replicates.
The mark [12] stands for this setting: read-out: kinact /Ki Akt3, individual determinations, single replicates.
Setting [13] is: read-out: kinact Akt3, Mean, mean of replicates.
Setting [14] is: read-out: kinact Akt3, individual determinations, single replicates.

“And” between values parts separate entries of the source, which are not always exact repeats. Identical values can stand only once. Like-named read-outs stand apart in the source and are kept apart here.

T2 sequence (Q9Y243 2-443 E113A/E114A/E115A): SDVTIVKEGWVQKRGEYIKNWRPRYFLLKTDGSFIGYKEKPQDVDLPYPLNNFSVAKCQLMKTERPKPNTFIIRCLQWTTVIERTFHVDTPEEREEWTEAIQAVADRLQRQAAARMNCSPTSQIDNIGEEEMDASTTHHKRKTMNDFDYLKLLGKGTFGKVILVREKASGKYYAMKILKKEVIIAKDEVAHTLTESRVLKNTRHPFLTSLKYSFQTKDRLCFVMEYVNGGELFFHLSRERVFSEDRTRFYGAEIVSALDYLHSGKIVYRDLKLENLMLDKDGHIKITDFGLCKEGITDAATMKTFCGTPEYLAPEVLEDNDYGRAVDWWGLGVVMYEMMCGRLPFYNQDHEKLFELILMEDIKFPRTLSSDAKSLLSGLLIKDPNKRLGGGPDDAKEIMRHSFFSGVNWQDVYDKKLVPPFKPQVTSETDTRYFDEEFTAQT

Consider `C=CC(=O)Nc1ccc2[nH]c(=O)n(C3CCN(Cc4ccc(-c5ncc(Cc6ccc(N)nc6)cc5-c5ccccc5)cc4)CC3)c2c1` [compound 20], for which the Ki (usually the dissociation constant of the complex between target and ligand, obtained from inhibition or displacement) was 95 ± 14 nM in assay [1] (Ki Akt2); 94.4 nM in assay [1] (setting [7]); 98.6 nM and 101 nM and 71.2 nM and 107 nM in assay [1] (setting [8]); 53 ± 4 nM in assay [3] (Ki Akt3); 70.1 nM in assay [3] (setting [10]); 71.5 nM and 73.4 nM and 65.4 nM in assay [3] (setting [11]). Further, the kinact/KI in assay [1] (read-out: kinact /Ki Akt2) was 4000 ± 1000 M⁻¹ s⁻¹; in assay [1] (read-out: kinact /Ki Akt2, Mean, mean of replicates), 4000 M⁻¹ s⁻¹; in assay [3] (read-out: kinact /Ki Akt3), 10000 ± 3000 M⁻¹ s⁻¹; in assay [3] (read-out: kinact /Ki Akt3, Mean, mean of replicates), 11000 M⁻¹ s⁻¹; in assay [3] (setting [12]) it was 8000 M⁻¹ s⁻¹. Moreover, the kinact (in general, the maximal first-order rate at which the target is inactivated) in assay [1] (read-out: kinact Akt2) was 0.00035 s⁻¹; in assay [1] (setting [9]) it was 0.000383 s⁻¹; in assay [3] (read-out: kinact Akt3), 0.000733 s⁻¹; in assay [3] (setting [13]), 0.000767 s⁻¹; in assay [3] (setting [14]) it was 0.00055 s⁻¹. Moreover, the “kinact Akt2, individual determinations” value in assay [1] (single replicates) was 0.025 min⁻¹ and 0.022 min⁻¹ and 0.015 min⁻¹. For the same compound, the “modified cysteine residues in Akt3 (MS/MS)” value in assay [2] was “Cys293”. Also, the “kobs (mean)” value amounted to 5.68e-05 s⁻¹ in assay [3] (Akt3 + 20, concentration 2.5 nM); 4.71e-05 s⁻¹ in assay [3] (Akt3 + 20, concentration 4.9 nM); 8.01e-05 s⁻¹ in assay [3] (Akt3 + 20, concentration 9.9 nM); 0.00023 s⁻¹ in assay [3] (Akt3 + 20, concentration 39.5 nM); 0.000418 s⁻¹ in assay [3] (Akt3 + 20, concentration 123.8 nM); 0.000431 s⁻¹ in assay [3] (Akt3 + 20, concentration 247.5 nM). For the same compound, the “kobs (mean)” value in assay [3] (Akt3 + 20, concentration 371.3 nM) was determined as 0.000653 s⁻¹. Besides, in assay [3] (single replicates), the “kinact Akt3, individual determinations” value came out at 0.061 min⁻¹.

Take `C=CC(=O)Nc1ccc2[nH]c(=O)n(C3CCN(Cc4ccc(-c5ncc(Cc6cn[nH]c6)cc5-c5ccccc5)cc4)CC3)c2c1` [compound 14]: the Ki is 11 ± 2 nM in assay [1] (Ki Akt2); 10.4 nM in assay [1] (setting [7]); 13.2 nM and 8 nM and 9.9 nM in assay [1] (setting [8]); 29 ± 4 nM in assay [3] (Ki Akt3); 29.3 nM in assay [3] (setting [10]); 35.5 nM and 27.7 nM and 30 nM and 24.2 nM in assay [3] (setting [11]). The kinact/KI in assay [1] (read-out: kinact /Ki Akt2) came to 25000 ± 6000 M⁻¹ s⁻¹; in assay [1] (read-out: kinact /Ki Akt2, individual determinations, single replicates), 15000 M⁻¹ s⁻¹; in assay [3] (read-out: kinact /Ki Akt3) it was 13000 ± 2000 M⁻¹ s⁻¹; in assay [3] (setting [12]), 11000 M⁻¹ s⁻¹. The kinact was 0.000267 s⁻¹ in assay [1] (read-out: kinact Akt2); 0.00025 s⁻¹ in assay [1] (read-out: kinact Akt2, Mean, mean of replicates); 0.0002 s⁻¹ in assay [1] (setting [9]); 0.000367 s⁻¹ in assay [3] (read-out: kinact Akt3); 0.000367 s⁻¹ in assay [3] (setting [13]); 0.0004 s⁻¹ in assay [3] (setting [14]). Further, the “kinact Akt2, individual determinations” value in assay [1] (single replicates) was 0.015 min⁻¹ and 0.017 min⁻¹. For the same compound, the “modified cysteine residues in Akt2 (MS/MS)” value in assay [4] was “Cys297, Cys311, and Cys124”. Besides, the “kinact Akt3, individual determinations” value in assay [3] (single replicates) is 0.023 min⁻¹ and 0.019 min⁻¹ and 0.022 min⁻¹. The “pAkt1 level (immunoblot)” value in assay [5] is reported as “pAkt1 signal remained stable”.

With `C=CC(=O)Nc1ccc2[nH]c(=O)n(C3CCN(Cc4ccc(-c5ncccc5-c5ccccc5)cc4)CC3)c2c1` [compound 1], in assay [5], the “pAkt1 level (immunoblot)” value was “downregulation of pAkt1 and pAkt2”. Further, the inhibitory constant (Ki) was 6 ± 2 nM in assay [6] (Ki Akt1); 5.77 nM in assay [6] (Ki Akt1, Mean, mean of replicates); 3.95 nM and 5.28 nM and 8.08 nM in assay [6] (Ki Akt1, individual determinations, single replicates). The kinact/KI came to 38000 ± 10000 M⁻¹ s⁻¹ in assay [6] (read-out: kinact /Ki Akt1); 36000 M⁻¹ s⁻¹ in assay [6] (read-out: kinact /Ki Akt1, Mean, mean of replicates); 36000 M⁻¹ s⁻¹ in assay [6] (read-out: kinact /Ki Akt1, individual determinations, single replicates). In addition, the kinact in assay [6] (read-out: kinact Akt1) is 0.0002 s⁻¹; in assay [6] (read-out: kinact Akt1, individual determinations, single replicates), 0.00015 s⁻¹. Also, in assay [6] (single replicates), the “kinact Akt1, individual determinations” value was 0.015 min⁻¹ and 0.011 min⁻¹.
